The values below come from patent publication US10000473B2, “Indazole derivatives useful as glucagon receptor antagonists” (Janssen Pharmaceutica NV, priority 2016, dated 2018).

Each structure is given as a SMILES string. Values joined by “and” are separate entries in the source; they are usually repeats but may differ in a detail not shown here. Equal values may be shown once. Bounds are passed on as bounds.

T1 sequence (P47871 26-477): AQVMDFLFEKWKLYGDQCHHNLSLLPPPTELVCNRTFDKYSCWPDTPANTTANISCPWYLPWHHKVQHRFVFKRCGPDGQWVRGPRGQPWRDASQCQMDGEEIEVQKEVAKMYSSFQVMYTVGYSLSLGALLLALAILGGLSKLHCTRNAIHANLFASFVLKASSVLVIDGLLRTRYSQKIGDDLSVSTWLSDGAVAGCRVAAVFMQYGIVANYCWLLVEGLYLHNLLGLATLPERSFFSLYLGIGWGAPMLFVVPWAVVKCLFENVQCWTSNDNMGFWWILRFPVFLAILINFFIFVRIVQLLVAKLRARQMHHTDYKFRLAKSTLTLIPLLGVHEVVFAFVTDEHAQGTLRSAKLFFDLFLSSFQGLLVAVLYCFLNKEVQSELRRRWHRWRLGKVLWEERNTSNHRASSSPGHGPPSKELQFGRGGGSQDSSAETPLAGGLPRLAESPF

This assay has as its target T1, human GCGR (Homo sapiens, UniProt P47871).
T1 construct: expressed in transfected cells; host or cells: HEK293 (hGluc-1HEK), pcDNA3.1, G418 selection
Nature of the assay: Cellular functional assay, cAMP readout (glucagon-stimulated cAMP, LANCE TR-FRET). Type of assay: cell-based. Conditions: HEK293 cells stably expressing full-length human GCGR; glucagon 100 pM; IC50 converted to Ki; read-out: Inhibition of cAMP Ki.
The term Ki denotes a measure of affinity in units of concentration, obtained from inhibition or displacement. With `O=C(O)CCNC(=O)c1ccc(C(CC2CCCCC2)n2ncc3cc(-c4ccc(C(F)(F)F)cc4)ccc32)cn1` (stereo not drawn) [compound 255], the inhibition constant Ki was 550 nM.

As to `CC(C)CC(c1ccc(C(=O)NCCC(=O)O)cc1)n1ncc2cc(-c3cccnc3)ccc21` (stereo not drawn) [compound 219], the Ki is over 5200 nM.

For the compound `CC(C)CC(c1ccc(C(=O)NCCC(=O)O)cc1)n1ncc2cc(-c3cc4ccccc4s3)ccc21` (stereo not drawn) [compound 73], the inhibitory constant (Ki) is 62 nM.

Take `CC(C)CCC(c1ccc(C(=O)NCCC(=O)O)cc1)n1cc2cc(-c3ccc(C(C)(C)C)cc3)ccc2n1` (stereo not drawn) [Compound #227, 3-(4-(1-(5-(4-(tert-Butyl)phenyl)-2H-indazol-2-yl)-4-methylpentyl)benzamido)propanoic acid]: the inhibition constant Ki was 330 nM.

On to `Cc1ccc2sc(-c3ccc4nn(C(CC(C)C)c5ccc(C(=O)NCCC(=O)O)cc5)cc4c3)cc2c1` (stereo not drawn) [compound 28], for which the Ki stood at 260 nM.

Consider `COc1c(-c2ccc(C(F)(F)F)cc2Cl)ccc2nn(C(CC(C)C)c3ccc(C(=O)NCCC(=O)O)nc3)cc12` (stereo not drawn) [Compound #178, 3-(5-(1-(5-(2-Chloro-4-(trifluoromethyl)phenyl)-4-methoxy-2H-indazol-2-yl)-3-methylbutyl)picolinamido)propanoic acid], for which the inhibitory constant (Ki) worked out at 22 nM.

Regarding `CC(C)CC(c1ccc(C(=O)NCCC(=O)O)nc1)n1cc2cc(-c3ccc(C(F)(F)F)cc3Cl)ccc2n1` (stereo not drawn) [Compound #53, 3-(5-(1-(5-(2-Chloro-4-(trifluoromethyl)phenyl)-2H-indazol-2-yl)-3-methylbutyl)picolinamido)pr-opanoic acid], the inhibition constant Ki came to 105 nM.

Take `Cc1cc(Cl)ccc1-c1cc2cn(C(CC(C)C)c3ccc(C(=O)NCCC(=O)O)nc3)nc2cc1Cl` (stereo not drawn) [Compound #140, 3-[[5-[1-[6-Chloro-5-(4-chloro-2-methyl-phenyl)indazol-2-yl]-3-methyl-butyl]pyridine-2-carbonyl]amino]propanoic acid]: the Ki was determined as 125 nM.

For `O=C(O)CCNC(=O)c1ccc(C(CCC2CCCCC2)n2cc3cc(-c4ccc(C(F)(F)F)cc4)ccc3n2)cc1` (stereo not drawn) [compound 133], the inhibition constant Ki turned out to be 92 nM.

Turning to `CC(C)CCn1cc(-c2ccc3c(cnn3C(CC(C)C)c3ccc(C(=O)NCCC(=O)O)cc3)c2)cn1` (stereo not drawn) [compound 123], the Ki is over 5200 nM.

Consider `CC(C)CC(c1ccc(C(=O)NCCC(=O)O)cc1)n1cc2cc(-c3cc4ccccc4s3)ccc2n1` (stereo not drawn) [compound 120], for which the inhibitory constant (Ki) worked out at 58 nM.

Take `CC(C)CC(c1ccc(C(=O)NCCC(=O)O)nc1)n1cc2cc(-c3ccc(Cl)cc3Cl)ccc2n1` (stereo not drawn) [Compound #83, 3-(5-(1-(5-(2,4-Dichlorophenyl)-2H-indazol-2-yl)-3-methylbutyl)picolinamido)propanoic acid]: the inhibition constant (Ki) is 336 nM.

With `COc1c(-c2ccc(C(F)(F)F)cc2Cl)ccc2c1cnn2C(CC(C)C)c1ccc(C(=O)NCCC(=O)O)cc1` (stereo not drawn) [Compound #103, 3-(4-(1-(5-(2-Chloro-4-(trifluoromethyl)phenyl)-4-methoxy-1H-indazol-1-yl)-3-methylbutyl)benzamido)propanoic acid], the Ki was found to be 100 nM.

Regarding `CC(C)CC(c1ccc(C(=O)NCCC(=O)O)cc1)n1ncc2cc(-c3ccc(C(C)(C)C)cc3)ccc21` (single isomer, unassigned) [Compound #37], the inhibition constant Ki was 62 nM and 130 nM.

`O=C(O)CCNC(=O)c1ccc(C(CCc2ccc(Cl)cc2)n2cc3cc(-c4ccc(C(F)(F)F)cc4)ccc3n2)cc1` (stereo not drawn) [compound 200]: the Ki came to 80 nM.

Take `Cc1cc(Cl)ccc1-c1ccc2nn(C(CC(C)C)c3ccc(C(=O)NCCC(=O)O)cc3)cc2c1` (stereo not drawn) [Compound #168]: the Ki was 191 nM.

`CCCCCC(c1ccc(C(=O)NCCC(=O)O)cc1)n1ncc2cc(-c3ccc(C(F)(F)F)cc3)ccc21` (stereo not drawn) [compound 89]: the Ki came to 130 nM.

On to `Cc1ccc2cc(-c3ccc4c(cnn4C(CC(C)C)c4ccc(C(=O)NCCC(=O)O)cc4)c3)sc2c1` (stereo not drawn) [compound 62], for which the inhibition constant Ki amounted to 230 nM.

In the case of `CC(C)CC(c1ccc(C(=O)NCCC(=O)O)cc1)n1ncc2c(Cl)c(-c3ccc(C(F)(F)F)cc3Cl)ccc21` (stereo not drawn) [Compound #141, 3-(4-(1-(4-Chloro-5-(2-chloro-4-(trifluoromethyl)phenyl)-1H-indazol-1-yl)-3-methylbutyl)benzamido)propanoic acid], the Ki was found to be 115 nM.

In the case of `CC(C)CC(c1ccc(C(=O)NCCC(=O)O)nc1)n1cc2cc(-c3cc4ccccc4s3)ccc2n1` (stereo not drawn) [compound 96], the Ki was 92 nM.

In the case of `Cc1c(-c2ccc(C(F)(F)F)cc2Cl)ccc2c1cnn2[C@@H](CC(C)C)c1ccc(C(=O)NCCC(=O)O)cc1` [Compound #241, (S)-3-(4-(1-(5-(2-Chloro-4-(trifluoromethyl)phenyl)-4-methyl-1H-indazol-1-yl)-3-methylbutyl)benzamido)propanoic acid], the Ki stood at 42 nM.

Consider `CC(C)CC(c1ccc(C(=O)NCCC(=O)O)cc1)n1ncc2cc(-c3cccc4ccccc34)ccc21` (stereo not drawn) [compound 165], for which the Ki stood at 1350 nM.

Consider `Cc1cc(Cl)ccc1-c1cc2cnn(C(CC(C)C)c3ccc(C(=O)NCCC(=O)O)nc3)c2cc1Cl` (stereo not drawn) [Compound #102, 3-[[5-[1-[6-Chloro-5-(4-chloro-2-methyl-phenyl)indazol-1-yl]-3-methyl-butyl]pyridine-2-carbonyl]amino]propanoic acid], for which the Ki worked out at 550 nM.

Consider `O=C(O)CCNC(=O)c1ccc(C(CC2CCCCC2)n2cc3cc(-c4ccc(C(F)(F)F)cc4)ccc3n2)cn1` (stereo not drawn) [compound 240], for which the inhibitory constant (Ki) came to 200 nM.

In the case of `CC(C)CC(c1ccc(C(=O)NCCC(=O)O)nc1)n1ncc2cc(-c3ccc(C(F)(F)F)cc3)ccc21` (stereo not drawn) [compound 74], the inhibitory constant (Ki) was 255 nM.

With `COc1c(-c2ccc(C(F)(F)F)cc2C)ccc2c1cnn2C(CC(C)C)c1ccc(C(=O)NCCC(=O)O)nc1` (stereo not drawn) [Compound #213, 3-(5-(1-(4-Methoxy-5-(2-methyl-4-(trifluoromethyl)phenyl)-1H-indazol-1-yl)-3-methylbutyl)picolinamido)propanoic acid], the Ki came to 75 nM.

Turning to `CC(C)(F)CC(c1ccc(C(=O)NCCC(=O)O)cc1)n1cc2cc(-c3ccc(C(F)(F)F)cc3)ccc2n1` (stereo not drawn) [Compound #256, 3-(4-(3-Fluoro-3-methyl-1-(5-(4-(trifluoromethyl)phenyl)-2H-indazol-2-yl)butyl)benzamido)propanoic acid], the Ki was determined as 200 nM.

As for `CCOc1c(-c2ccc(C)cc2C)ccc2nn(C(CC(C)C)c3ccc(C(=O)NCCC(=O)O)nc3)cc12` (stereo not drawn) [compound 182], the Ki was determined as 70 nM.

In the case of `Cc1cc(Cl)ccc1-c1ccc2c(cnn2C(CC(C)(C)C)c2ccc(C(=O)NCCC(=O)O)nc2)c1` (stereo not drawn) [compound 238], the Ki turned out to be 210 nM.

Consider `COc1c(-c2ccc(Cl)cc2C)ccc2c1cnn2C(CC(C)C)c1ccc(C(=O)NCCC(=O)O)cc1` (stereo not drawn) [Compound #99, 3-(4-(1-(5-(4-Chloro-2-methylphenyl)-4-methoxy-1H-indazol-1-yl)-3-methylbutyl)benzamido)propanoic acid], for which the inhibition constant (Ki) came to 145 nM.

Consider `Cc1ccc(-c2ccc3c(cnn3C(CC(C)C)c3ccc(C(=O)NCCC(=O)O)cc3)c2C)c(Cl)c1` (stereo not drawn) [Compound #105, 3-(4-(1-(5-(2-Chloro-4-methylphenyl)-4-methyl-1H-indazol-1-yl)-3-methylbutyl)benzamido)propanoic acid], for which the Ki is 800 nM.

Take `CC(C)CC(c1ccc(C(=O)NCCC(=O)O)cc1)n1ncc2cc(-c3ccsc3)ccc21` (stereo not drawn) [compound 221]: the Ki was found to be 2900 nM.

Consider `O=C(O)CCNC(=O)c1ccc(C(CCCC(F)(F)F)n2ncc3cc(-c4ccc(C(F)(F)F)cc4)ccc32)cc1` (stereo not drawn) [compound 234], for which the inhibitory constant (Ki) was 275 nM.

`CC(C)CCC(c1ccc(C(=O)NCCC(=O)O)cc1)n1ncc2cc(-c3ccc(C(F)(F)F)cc3)ccc21` (stereo not drawn) [compound 59]: the Ki came out at 155 nM.

As to `CC(C)CC(c1ccc(C(=O)NCCC(=O)O)cc1)n1cc2c(Cl)c(-c3ccc(C(F)(F)F)cc3)ccc2n1` (stereo not drawn) [Compound #147, 3-(4-(1-(4-Chloro-5-(4-(trifluoromethyl)phenyl)-2H-indazol-2-yl)-3-methylbutyl)benzamido)prop-anoic acid], the Ki came to 40 nM.

Take `CC(C)CC(c1ccc(C(=O)NCCC(=O)O)nc1)n1ncc2cc(-c3ccc(Cl)cc3Cl)ccc21` (stereo not drawn) [Compound #113, 3-(5-(1-(5-(2,4-Dichlorophenyl)-1H-indazol-1-yl)-3-methylbutyl)picolinamido)propanoic acid]: the Ki was determined as 420 nM.

For `Cc1cc(C(F)(F)F)ccc1-c1cc2cn(C(CC(C)C)c3ccc(C(=O)NCCC(=O)O)cc3)nc2cc1Cl` (stereo not drawn) [Compound #30, 3-[[4-[1-[6-Chloro-5-[2-methyl-4-(trifluoromethyl)phenyl]indazol-2-yl]-3-methyl-butyl]benzoyl]amino]propanoic acid], the Ki was found to be 44 nM.

For the compound `O=C(O)CCNC(=O)c1ccc(C(CCC(F)(F)F)n2ncc3cc(-c4ccc(C(F)(F)F)cc4)ccc32)cc1` (stereo not drawn) [Compound #75, 3-[[4-[4,4,4-Trifluoro-1-[5-[4-(trifluoromethyl)phenyl]indazol-1-yl]butyl]benzoyl]amino]propanoic acid], the inhibitory constant (Ki) came out at 235 nM.

With `Cc1cc2c(cnn2C(CC(C)C)c2ccc(C(=O)NCCC(=O)O)cc2)cc1-c1ccc(C(F)(F)F)cc1Cl` (stereo not drawn) [Compound #94, 3-[[4-[1-[5-[2-Chloro-4-(trifluoromethyl)phenyl]-6-methyl-indazol-1-yl]-3-methyl-butyl]benzoyl]amino]propanoic acid], the Ki is 26 nM.

With `CC(C)CCn1cc(-c2ccc3nn(C(CC(C)C)c4ccc(C(=O)NCCC(=O)O)cc4)cc3c2)cn1` (stereo not drawn) [Compound #17], the inhibition constant (Ki) is over 5200 nM.

Regarding `Cc1cc(C(F)(F)F)ccc1-c1ccc2c(cnn2C(CC(C)C)c2ccc(C(=O)NCCC(=O)O)cc2)c1C` (stereo not drawn) [Compound #21, 3-(4-(3-Methyl-1-(4-methyl-5-(2-methyl-4-(trifluoromethyl)phenyl)-1H-indazol-1-yl)butyl)benzamido)propanoic acid], the inhibitory constant (Ki) was 92 nM.

As to `CC(C)CC(c1ccc(C(=O)NCCC(=O)O)cc1)n1ncc2cc(-c3ccc(C(F)(F)F)cc3Cl)ccc21` (stereo not drawn) [Compound #41, 3-(4-(1-(5-(2-Chloro-4-(trifluoromethyl)phenyl)-1H-indazol-1-yl)-3-methylbutyl)benzamido)propanoic acid], the Ki amounted to 86 nM.
